Data from patent US11198869B2, “Angelman syndrome antisense treatment” (The Texas A&M University System, priority 2017, dated 2021).
pIC50: −log10 of the molar value. Read-outs that look alike come from different tables or passages of the source. Oligonucleotides are written 5' to 3', each unit as a sugar letter and its base; * is a phosphorothioate linkage, no mark a phosphodiester; rarer units and linkages stand in square brackets, end groups in braces. Plain capitals give the bases only. l = locked nucleic acid (LNA); [5mC] = 5-methylcytosine; d = 2'-deoxy (DNA)

What was measured:
UBE3A-AS [1] = assay: UBE3A-AS steady state RNA (TaqMan qRT-PCR) in GABAergic iPSC-derived neurons; type: cell-based, human; details: for IC50 Ratio relative to ASO-4.4.PS.L: equivalence; for IC50 Ratio relative to ASO-4.4.PS.L / Limit Exceeded (equivalence of IC50 relative to ASO-4.4.PS.L): two one-sided tests; for Relative Potency: relative to ASO-4.4.PS.L = 1
UBE3A-AS [2] = assay: as above; type: cell-based, human; details: for Cluster (hierarchical clustering of fitted dose response curves): candidate ASOs, Cluster 1 representing the 9 most potent ASOs; for 3 μM (Mean), Emax, normalized UBE3A-AS RNA level relative to vehicle / pIC50: treated 14 DIV, RNA 20 DIV; for IC50 / Relative Potency / pIC50: optimized ASOs; for IC50: 14 DIV to 20 DIV, read-out: IC50 (M), UBE3A-AS; for IC50 / Relative Potency: parallel model; for IC50 / pIC50: 3-parameter logistic; for Relative Potency: relative to ASO 4.S = 1; for pIC50: 5-point dose curve 30 nM-3 μM, full model, read-out: IC50 Estimate, UBE3A-AS
Description: Human-specific ASOs were then designed to target this region, which included four ASOs targeting non-polymorphic regions in human and regions conserved (100%) with macaque (Rhesus and Cynomolgus) (Table 7 and FIG. 3A). Human induced pluripotent stem cell (iPSC) neural precursor cells were differentiated into GABAergic neurons for 14 DIV and then treated with a control ASO [ASO-C (10 μM, n=3)], Topotecan [Topo (1 μM, n=2)], and six ASOs targeting UBE3A-AS [ASO-1, ASO-2, ASO-3, ASO-4, ASO-5, and ASO-6 (10 μM, n=3)]. Additionally, an ASO targeting an intronic region downstream of SNORD109B was included (ASO-7). Six days post-treatment (20 DIV), RNA was isolated from the neurons and the steady state RNA levels of UBE3A-AS and UBE3A were estimated relative to the control treatment (FIG. 3B).
The potency of ASO-4 was further examined given its effect on UBE3A-AS RNA levels. GABAergic iPSC-derived neurons were treated at 14 DIV with a 10-point ½ log dose response curve of ASO-4 and Topotecan, as a positive control and for comparisons between treatment [1 nM, 3 nM, 10 nM, 30 nM, 100 nM, 300 nM, 1 μM, 3 μM, 10 μM, and 30 μM (ASO-4, n=6; Topotecan, n=2)]. At 20 DIV, the steady state RNA levels of UBE3A-AS were measured and dose response curves fitted to estimate the IC50 and Emax (i.e., maximum UBE3A-AS inhibition) (Table 9 and FIG. 4A). […]
Additional ASOs targeting the 5′-end of UBE3A-AS were then designed to optimize the target sequences of ASO-4 (ASO-4.1, ASO-4.2, ASO-4.3, and ASO-4.4) as well as two other target regions, ASO-3 (ASO-3.1 and ASO-3.2) and ASO-6 (ASO-6.1) (Table 11). Additionally, ASO-4 was manufactured at two different vendors for comparative purposes (ASO-4.S, Sigma; ASO-4.I, Integrated DNA Technologies). Human iPSC-derived neurons (GABAergic) were treated at 14 DIV with a […] ½ log dose curve of ASO-3.1, ASO-3.2, ASO-4.S, ASO-4.I, ASO-4.1, ASO-4.2, ASO-4.3, ASO-4.4, and ASO-6.1 [30 nM, 100 nM, 300 nM, 1 μM (n=6)]. At 20 DIV, the IC50 and Emax of each ASO was estimated as described above (FIG. 5A-B and Table 12). […] No significant difference was observed between ASO-4.S and ASO-4.I.
The potency of ASO-4 and ASO-6.1 was further examined in iPSC-derived neurons at a later time point in differentiation. GABAergic iPSC-derived neurons were treated at 29 DIV with a 10-point ½ log dose response curve of ASO-4 and ASO-6.1 [1 nM, 3 nM, 10 nM, 30 nM, 100 nM, 300 nM, 1 μM, 3 μM, 10 μM, and 30 μM (n=3)]. At 35 DIV, the IC50 and Emax of each ASO was estimated as described above (FIG. 5C-D and Table 14). The dose response curves of ASO-4 and ASO-6.1 were not similar (Parallelism test: F(3,172)=22.7, p<0.0001).
GABAergic and glutamatergic induced pluripotent stem cell (iPSC) derived neural precursor cells (NRC-100-010-001 and GNC-301-030-001, Cellular Dynamics International, Madison Wis.) were differentiated into neurons according to the manufactures protocol. Briefly, neural precursor cells were thawed and resuspended in chemically defined medium and added to sterile-culture plates coated with poly-D-lysine and laminin. The medium was replaced 24 hr after plating and then one-half of the medium was replaced every 3-5 days afterwards.
For cultured iPSC-derived neurons, RNA isolation and cDNA synthesis were performed using the Cell-to-CT kit (Thermo Fisher Scientific) in a lysate volume of 55 μl.
The steady state RNA levels of target transcripts were measured using TaqMan quantitative reverse-transcription PCR (qRT-PCR) assays. Total reaction volume was 10 uL, including 2 μl of cDNA, 1× Gene Expression Master mix (4369016, Thermo Fisher Scientific, Waltham, Mass.), and 1× TaqMan primer assay (Thermo Fisher Scientific). Cycling conditions were 2 minutes at 50° C., 10 minutes at 95° C., and 40 cycles of 15 seconds at 95° C. and 1 minute at 60° C., with readings taken at the 60° C. step of every cycle. […]

[3] = candidate ASOs, 18 DIV to 24 DIV
[4] = candidate ASOs, 18 DIV to 24 DIV, 4-parameter logistic (Hill)
[5] = candidate ASOs, treated 18 DIV, RNA 24 DIV, 10-point dose curve, n=2, full model, 4-parameter logistic (Hill)
[6] = Cluster 1 ASOs, 18 DIV to 24 DIV, parallel model, 4 Parameter logistic (Hill)

Substance	30 μM (Mean), normalized UBE3A-AS RNA level relative to vehicle (UBE3A-AS [1]; [3])	Emax (normalized UBE3A-AS RNA level relative to vehicle) (UBE3A-AS [1]; [4])	IC50 (UBE3A-AS [1]; [5]) [µM]	IC50 (UBE3A-AS [1]; [6]) [µM]	IC50 Ratio relative to ASO-4.4.PS.L (UBE3A-AS [1]; Cluster 1 ASOs)	Relative Potency (UBE3A-AS [1]; Cluster 1 ASOs, parallel model)	Limit Exceeded (equivalence of IC50 relative to ASO-4.4.PS.L) (UBE3A-AS [1]; Cluster 1 ASOs)	Cluster (hierarchical clustering of fitted dose response curves) (UBE3A-AS [2])	3 μM (Mean), Emax, normalized UBE3A-AS RNA level relative to vehicle (UBE3A-AS [2])	IC50 (UBE3A-AS [2]) [M]	Relative Potency (UBE3A-AS [2])	pIC50 (UBE3A-AS [2])
U^O*A^O*G^O*A^O*A^O-t*g*g*c*a*c*a*t*c*t-C^O*U^O*U^O*G^O*G^o [ASO-4.0.PO-1.O]	0.1	0.05	0.766									
A^L*G^L*A^L-a*t*g*g*c*a*c*a*t*c*t-5mC^L*T^L*T^L*G^L (lA*lG*lAdA*dT*dG*dG*dC*dA*dC*dA*dT*dC*dTl[5mC]*lT*lT*lG) [ASO-4.4.PO-1.L]	0.1	0.04	0.226	0.322	0.88	0.2	Lower	1				
A^O*G^O*A^O*A^O*t*g*g*c*a*c*a*t*c*t*C^O*U^O*U^O*G^O*G^O [ASO-4.2]									0.31	1.24e-06	1.21	5.97
T^L*G^L*G^L*t*g*t*c*a*a*c*a*a*g*5mC^L*5mC^L*A^L*A^L [ASO-6.1.PS.L]	0.04	−0.07	0.362	0.281	0.85	0.2	Lower					
G^O*U^O*U^O*G^O*a*g*t*g*g*t*g*t*c*a*G^O*U^O*U^O*U^O*C^O [ASO-3.1]									0.51	2.81e-06	0.53	5.53
A^O*U^O*A^O*G^O*A^O*a*t*g*g*c*a*c*a*t*c*U^O*C^O*U^O*U^O*G^O [ASO-4.1]									0.42			5.64
U^O*A^O-G^O*A^O-A^O*t-g*g-c*a-c*a-t*c-t*C^O-U^O*U^O-G^O*G^o [ASO-4.0.PO-2.O]	0.6	−0.3	130									
T^M*A^M-G^M*A^M-A^M*t-g*g-c*a-c*a-t*c-t*5mC^M*T^M*T^M-G^M*G^M [ASO-4.0.PO-2.M]	0.5											
T^M*A^M*G^M*A^M*A^M*t*g*g*c*a*c*a*t*c*t*5mC^M*T^M*T^M*G^M*G^M [ASO-4.0.PS.M]	0.05	0.05	0.3	0.262	0.86	0.2	Lower					
5mC^M*T^M-G^M*G^M-t*g-t*c-a*a-c*a-a*g-5mC^M*5mC^M-A^M*A^M [ASO-6.1.PO-2.M]	0.3	−1.2	269									
U^O*A^O*G^O*A^O*A^O*t*g*g*c*a*c*a*t*c*t*C^O*U^O*U^O*G^O*G^o [ASO-4.0.PS.O]	0.1	0.06	1.27									
5mC^M*T^M*G^M*G^M*t*g*t*c*a*a*c*a*a*g*5mC^M*5mC^M*A^M*A^M [ASO-6.1.PS.M]	0.02	−0.05	0.147	0.153	0.90	0.3	equivalent IC50 values					
U^O*U^O*G^O*A^O*g*t*g*g*t*g*t*c*a*g*U^O*U^O*U^O*C^O [ASO-3.2]									0.44	1.85e-06	0.81	5.73
T^L*G^L-G^L*t-g*t-c*a-a*c-a*a-g*5mC^L-5mC^L-A^L*A^L [ASO-6.1.PO-2.L]	0.4	0.3	0.734									
U^O*A^O*G^O*A^O*a*t*g*g*c*a*c*a*t*c*U^O*C^O*U^O*U^O*G^O [ASO-4.3]									0.40	1.96e-06	0.76	5.69
T^M*A^M*G^M*A^M*A^M-t*g*g*c*a*c*a*t*c*t-5mC^M*T^M*T^M*G^M*G^M [ASO-4.0.PO-1.M]	0.05	0.02	0.278	0.278	0.87	0.2	Lower					
C^O*U^O-G^O*G^O-t*g-t*c-a*a-c*a-a*g-C^O*C^O-A^O*A^o [ASO-6.1.PO-2.O]	0.3											
C^O*U^O*G^O*G^O*t*g*t*c*a*a*c*a*a*g*C^O*C^O*A^O*A^o [ASO-6.1.PS.O]	0.05	−0.2	0.532	0.432	0.83	0.1	Lower					
A^O*G^O*A^O*A^O*t*g*g*c*a*c*a*t*c*t*C^O*U^O*U^O*G^O [ASO-4.4]									0.44	2.04e-06	0.73	5.68
5mC^M*T^M*G^M*G^M-t*g*t*c*a*a*c*a*a*g-5mC^M*5mC^M*A^M*A^M [ASO-6.1.PO-1.M]	0.04	−0.02	0.166	0.177	0.90	0.3	equivalent IC50 values					
T^L*G^L*G^L-t*g*t*c*a*a*c*a*a*g-5mC^L*5mC^L*A^L*A^L [ASO-6.1.PO-1.L]	0.2	0.03	1.89									
A^L*G^L-A^L*a-t*g-g*c-a*c-a*t-c*t-5mC^L*T^L*T^L*G^L (lA*lGlA*dAdT*dGdG*dCdA*dCdA*dTdC*dTl[5mC]*lT*lT*lG) [ASO-4.4.PO-2.L]	0.6	−2.7						3				
